Structures can show the parent of a compound that is named as a salt.
How the values were obtained:
[1] = tested on: Male mice of the Std:ddY Strain; test: Analgesic activity by the acetic acid-induced writhing method; type: in vivo; conditions: acetic acid i.p., counted for 10 min, n = 10
Procedure: Measurement of Analgesic Activity by the Acetic Acid-Induced Writhing Method
Male mice of the Std:ddY Strain (20-25 g), which were fasted for one night before the initiation of the experiment, were used. Test compound hardly soluble in water was used in 3% suspension in gum arabic. Test compound taking a salt form was used in aqueous solution. 0.7% acetic acid in 0.9% physiological saline solution was injected i.p. (10 ml/kg) at 2 hours and 50 minutes after the test compound was administered p.o. After 10 minutes, the number of writhing movements was counted for a period of 10 minutes.

[2] = tested on: Male mice of the Std:ddY Strain; test: Analgesic activity by the phenylquinone-induced writhing method; type: in vivo; conditions: phenylquinone i.p., counted for 15 min, n = 8~10
Procedure: Measurement of Analgesic Activity by the Phenylquinone-Induced Writhing Method
Male mice of the Std:ddY Strain (20-25 g), which were fasted for one night before the initiation of the experiment, were used. Test compound hardly soluble in water was used in 3% suspension in gum arabic. Test compound taking a salt form was used in aqueous solution. 0.03% phenylquinone in 0.5% ethanol solution was injected i.p. (10 ml/kg) at 2 hours and 55 minutes after the compound was administered p.o. After 5 minutes, the number of writhings was counted for a period of 15 minutes.

[3] = tested on: Male mice of the Std:ddY Strain; test: Analgesic activity by the tail-pressure method; type: in vivo
Procedure: Measurement of Analgesic Activity by the Tail-Pressure Method
Male mice of the Std:ddY Strain (20-25 g), which were fasted for one night before the initiation of the experiment, were used. Test compound hardly soluble in water was used in 3% suspension in gum arabic. Test compound taking a salt form was used in aqueous solution. Experiments were made with a tail-pressure apparatus. Before the administration of test compounds, the pain threshold was measured twice at intervals of 30 minutes and those mice indicating a pain threshold of 30 to 80 mmHg were selected and used. The pain threshold of each mouse was measured at 1, 3 and 5 hours after test compounds were administered p.o. The results were described as a percentage of the pain threshold after the treatment with test compound relative to that before the treatment with test compound.

[4] = tested on: Male rats of the Wistar strain; test: Antiinflammatory activity by the carrageenin-induced hind paw edema; type: in vivo; conditions: 100 mg/kg p.o.
Procedure: Measurement of Antiinflammatory Activity by the Carrageenin-Induced Hind Paw Edema
Male rats of the Wistar strain (5 weeks old, 120-130 g), which were fasted for one night before the initiation of the experiment, were used. One hour after the oral administration of test compound, λ-carrageenin (1%) was injected s.c. under the plantar surface of the right hind paw. Thereafter, at one hour intervals for 6 hours, the volume of the paw was measured using an apparatus therefor. The results were described as a swelling rate (%) calculated using the following equation:
(R-L)×100/L=swelling rate (%)
R: the volume of the right hind paw
L: the volume of the left hind paw

[5] = tested on: Male mice of the Std:ddY Strain; test: Analgesic activity by the hot plate method; type: in vivo; conditions: 52° C. plate
Procedure: Measurement of Analgesic Activity by the Hot Plate Method
Male mice of the Std:ddY Strain (20-25 g), which were fasted for one night before the initiation of the experiment, were used. Test compound hardly soluble in water was used in 3% suspension in gum arabic. Test compound taking a salt form was used in aqueous solution. Mice were placed on a cyrindric hot plate (diameter: 22 cm, height: 11 cm) made of copper which was fixed in a water bath adjusted to 52° C. so that each animal's four paws came into contact with the plate and the time taken to show the nociceptive response (jumping and licking) as an index of pain was measured. Mice showing response times above 25 seconds were excluded from the experiment. The analgesic activity of the compound was measured at 1, 3 and 5 hours after test compound was administered p.o. The results are shown in Table 4.

[6] = tested on: Male mice of the Std:ddY Strain; test: in vivo; conditions: p.o., mortality during 72 hours, Litchfield-Wilcoxon, 4320 min
From the text: (§1) EXPERIMENT EXAMPLE 6 (ACUTE TOXICITY)
(§2) Male mice of the Std:ddY Strain (20-25 g), which were fasted for one night before the initiation of the experiment, were used. Test compound hardly soluble in water was used in 3% suspension in gum arabic. Test compound taking a salt form was used in aqueous solution.

[7] = Property and solubility; type: physicochemical
[8] = in vivo; set-up: species or system mice (Std:ddY); conditions: mouse, in vivo, po; mortality during 72 hours; Litchfield-Wilcoxon
From the text: as §1, §2

Row | SMILES | The number of writhings, mean ± S.E. ([1]; 3 mg/kg p.o.) | The number of writhings, mean ± S.E. ([1]; 10 mg/kg p.o.) | The number of writhings, mean ± S.E. ([1]; 30 mg/kg p.o.) | The number of writhings, mean ± S.E. ([2]; 3 mg/kg p.o.) | The number of writhings, mean ± S.E. ([2]; 10 mg/kg p.o.) | The number of writhings, mean ± S.E. ([2]; 30 mg/kg p.o.) | Pain threshold (%, mean ± S.E.), posttreatment relative to pretreatment ([3]; 100 mg/kg p.o., 1 h) | Pain threshold (%, mean ± S.E.), posttreatment relative to pretreatment ([3]; 100 mg/kg p.o., 3 h) | Pain threshold (%, mean ± S.E.), posttreatment relative to pretreatment ([3]; 100 mg/kg p.o., 5 h) | Pain threshold (%, mean ± S.E.), posttreatment relative to pretreatment ([3]; 300 mg/kg p.o., 1 h) | Pain threshold (%, mean ± S.E.), posttreatment relative to pretreatment ([3]; 300 mg/kg p.o., 3 h) | Pain threshold (%, mean ± S.E.), posttreatment relative to pretreatment ([3]; 300 mg/kg p.o., 5 h) | Swelling rate (%, mean ± S.E.) ([4]; 1 h after carrageenin) | Swelling rate (%, mean ± S.E.) ([4]; 2 h after carrageenin) | Swelling rate (%, mean ± S.E.) ([4]; 3 h after carrageenin) | Swelling rate (%, mean ± S.E.) ([4]; 4 h after carrageenin) | Swelling rate (%, mean ± S.E.) ([4]; 5 h after carrageenin) | Swelling rate (%, mean ± S.E.) ([4]; 6 h after carrageenin) | Pain threshold (s, mean ± S.E.) ([5]; 100 mg/kg p.o., 1 h) | Pain threshold (s, mean ± S.E.) ([5]; 100 mg/kg p.o., 3 h) | further results
1 | CCN1C[C@]2(COC)[C@H](O)C[C@H](OC)[C@]34C1[C@H]([C@H](OC)[C@H]23)[C@]1(O)[C@H]2[C@@H](OC(=O)c3ccc(Cl)cc3)[C@](O)(C[C@H]24)[C@@H](OC)[C@@H]1O [14-O-p-chlorobenzoylaconine tartrate] | 17.8 ± 2.5 | 15.5 ± 2.3 | 10.7 ± 2.1 | 21.1 ± 2.4 | 18.3 ± 2.2 | 15.7 ± 2.7 | 102.6 ± 3.4% | 141.1 ± 8.3% | 128.0 ± 4.9% | 147.0 ± 7.8% | 240.4 ± 25.0% | 202.9 ± 19.7% | 16.0 ± 3.6% | 31.5 ± 3.1% | 47.3 ± 7.4% | 56.1 ± 2.0% | 49.6 ± 5.0% | 57.6 ± 9.0% | 17.3 ± 2.2 s | 26.7 ± 3.2 s | Pain threshold (s, mean ± S.E.) ([5]; 100 mg/kg p.o., 5 h): 24.7 ± 2.1 s; Pain threshold (s, mean ± S.E.) ([5]; 300 mg/kg p.o., 1 h): 18.7 ± 1.7 s; Pain threshold (s, mean ± S.E.) ([5]; 300 mg/kg p.o., 3 h): 42.5 ± 11.0 s; Pain threshold (s, mean ± S.E.) ([5]; 300 mg/kg p.o., 5 h): 25.7 ± 2.7 s; LD50 [6]: > 1000 mg/kg
2 | CCN1C[C@]2(COC)[C@H](O)C[C@H](OC)[C@]34C1[C@H]([C@H](OC)[C@H]23)[C@]1(O)[C@H]2[C@@H](OC(=O)c3ccc(Cl)cc3)[C@](O)(C[C@H]24)[C@@H](OC)[C@@H]1O [14-O-p-chlorobenzoylaconine] | 19.8 ± 2.5 | 17.3 ± 2.4 | 12.9 ± 3.7 | 20.1 ± 3.6 | 17.3 ± 2.8 | 15.9 ± 3.5 | 100.4 ± 2.5% | 129.6 ± 10.3% | 108.0 ± 6.0% | 120.0 ± 7.3% | 182.0 ± 21.7% | 166.0 ± 20.1% | 22.4 ± 8.0% | 28.0 ± 2.4% | 51.0 ± 2.8% | 58.6 ± 2.4% | 66.8 ± 3.7% | 72.9 ± 5.3% | 21.6 ± 2.2 s | 21.6 ± 2.0 s | Solubility in organic solvents ([7]; ether, chloroform, benzene, methanol, ethanol, acetone, ethyl acetate, pyridine and dimethyl sulfoxide): Soluble; Solubility in hexane and water ([7]; hexane and water): Insoluble; Pain threshold (s, mean ± S.E.) ([5]; 100 mg/kg p.o., 5 h): 27.6 ± 0.9 s; Pain threshold (s, mean ± S.E.) ([5]; 300 mg/kg p.o., 1 h): 22.2 ± 1.5 s; Pain threshold (s, mean ± S.E.) ([5]; 300 mg/kg p.o., 3 h): 38.4 ± 3.3 s; Pain threshold (s, mean ± S.E.) ([5]; 300 mg/kg p.o., 5 h): 24.0 ± 1.6 s; LD50 at 72 h [8]: > 1000 mg/kg; LD50 ([6]; listed as compound of the formula (I)): ≥ 1,000 mg/kg
